Results published in patent US12213479B2, “Monoterpenoid/phenylpropanoid-containing compounds and methods of their making and use as herbicides” (KITTRICH CORPORATION, priority 2016, dated 2025).

How the values were obtained:
[1] = test system: Palmer Amaranth (Amaranthus palmeri); assay: Toxicity assay (probit LC50), Palmer amaranth; assay type: in vivo
Description: Palmer amaranth seeds were obtained from the Department of Agronomy at Iowa State University. Individual seeds were sown for each pot (1.5″ wide×3″ deep) with approximately 7.5 g of soil for each plot. Five seeds/plot were sown into numerous plots. After one month of germination, germinated plants were counted in each plot and this number was used for the total number of plants challenged per plot in the toxicity assessment
(§1) The total number of plants were counted in each plot in 24×6 hexagonal small plot planter tray. The number of germinated seeds in each plot was enumerated after one month, and for each plot this number was recorded and used as the total for each plot. Differing concentrations of thymyloxyacetic acid was applied in 5% Triton-X 100 and 1:1 molar ratio potassium hydroxide:thymyloxyacetic acid to aid in the solubility of the compound in water. Ten mL of solution was applied to each plot, and the mortality of the plants was assessed at 3 days and 2 weeks post application (for some treatments). Mortality at these time points were enumerated out of the total plants germinated in each plot at the beginning of the assay. At both time points, the total number of dead plants and total number of plants at the beginning of the assay were recorded for each observation. A Probit model was used to calculate the LC50 values for each of the compounds explored in this assay. A formulation control (with no active ingredient) was screened against a number of plants and factored into the final probit model. This formulation control had little-to-no effect by itself.

[2] = test system: various dicot weed species; assay: Selectivity assessment, dicot weed species compared to bluegrass; assay type: in vivo; details: range over various weed species
Description: Kentucky bluegrass seeds were purchased in a bag under the commercial name of. Individual seeds were sown for each pot (1.5″ wide×3″ deep) with approximately 7.5 g of soil for each plot. 10 seeds/plot was sown into numerous plots. After one month of germination, germinated plants were counted in each plot and this number was used for the total number of plants challenged per plot in the toxicity assessment.
as §1, with “A formulation control (with no active ingredient) was screened against a number of plants and factored into the final probit model. This formulation control had little-to-no effect by itself.” left out

## Cc1ccc(C(C)C)c(OCC(=O)O)c1 [thymyloxyacetic acid, 2-(2-isopropyl-5-methylphenoxy)acetic acid]
[1]; Palmer Amaranth (Table 6)
  LC50 Value: 1700 ppm
[1]; Palmer Amaranth compared to bluegrass
  Selective Toxicity Compared to Bluegrass: 2.06
[1]; Palmer Amaranth, 2-week post application, probit
  LC50 Value: 1350 ppm
[1]; Palmer Amaranth, 3-day post application, probit
  LC50 Value: 1700 ppm
[2]
  selectivity ratio compared to a blue grass species: 2.06-5 fold
